Assay [1] concerns the target CK2 (Homo sapiens, UniProt P68400). Kind of assay: CK2 inhibition, biochemical chemiluminescence holoenzyme assay (Kinase Glo, IC50 determination). To be noted: Table 1 activity class; symbol given only if active; read-out: CK2 IC50 (Activity C). As for the experimental part: Characterization of CK2 Inhibition in a Biochemical Chemiluminesence Assay (IC50 Determination):
The IC50 evaluation of compounds against CK2 was performed in a Chemiluminesence Holoenzyme assay utilizing a Greiner 384-well white medium binding white plate format. […] The assay procedure involves the compound dilution scheme followed by addition of 10 μL of the substrate twice, followed by 10 μL twice of the respective enzyme or buffer to the designated well plates and subsequent pre-incubation of the compounds. Following an incubation period of 150 minutes at ambient temperature (24-27° C.), 10 μL of Kinase Glo (Promega) was added. The luminescence was measured following a Luminescence Protocol on a Victor plate reader.

Assay [2] deals with PIM (PIM-1, PIM-2, and/or PIM-3). Kind of assay: PIM-1, PIM-2 and PIM-3 inhibition, biochemical chemiluminescence assays (Kinase Glo, IC50 determination). The note with it: Table 1 activity class; PIM refers to PIM-1, PIM-2, and/or PIM-3; read-out: PIM IC50 (Activity B). As for the experimental part: The IC50 evaluation of compounds against the PIM-1 oncogene was performed in a Chemiluminesence assay utilizing a Greiner 384-well white medium binding white plate format. […] Following an incubation period of 120 minutes at ambient temperature (24-27° C.), 10 μL of Kinase Glo (Promega) was added. The luminescence was measured following a Luminescence Protocol on a Victor plate reader.
The IC50 evaluation of compounds against the PIM-2 oncogene was performed in a Chemiluminesence assay utilizing a Greiner 384-well white medium binding white plate format. […] The assay procedure involves compound dilution followed by addition of 3 nM PIM-2 to the designated well plates and subsequent pre-incubation of the compounds with the enzyme for 30 minutes at ambient temperature (24-27° C.). […] Following an incubation period of 120 minutes at ambient temperature (24-27° C.), 10 μL of Kinase Glo (Promega) was added. The luminescence was measured following a Luminescence Protocol on a Victor plate reader.
The IC50 evaluation of compounds against the PIM-3 Oncogene was performed in a Chemiluminesence assay utilizing a Greiner 384-well white medium binding white plate format. […] Following an incubation period of 120 minutes at ambient temperature (24-27° C.), 10 μL of Kinase Glo (Promega) was added. The luminescence was measured following a Luminescence Protocol on a Victor plate reader.

Some results are limits rather than exact numbers.

Sequence of CK2 (P68400 whole entry): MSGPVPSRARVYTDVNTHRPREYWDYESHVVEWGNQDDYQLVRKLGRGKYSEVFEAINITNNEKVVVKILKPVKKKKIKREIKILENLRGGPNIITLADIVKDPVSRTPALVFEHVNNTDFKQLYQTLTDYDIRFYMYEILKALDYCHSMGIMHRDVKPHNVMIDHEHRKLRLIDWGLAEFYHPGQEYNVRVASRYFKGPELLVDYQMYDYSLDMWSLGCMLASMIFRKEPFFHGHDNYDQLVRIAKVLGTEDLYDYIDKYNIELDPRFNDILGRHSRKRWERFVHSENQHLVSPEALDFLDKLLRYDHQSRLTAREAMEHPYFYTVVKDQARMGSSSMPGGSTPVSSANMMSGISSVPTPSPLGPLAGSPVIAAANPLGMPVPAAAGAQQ
Sequence of CK2 (P67870 whole entry partner): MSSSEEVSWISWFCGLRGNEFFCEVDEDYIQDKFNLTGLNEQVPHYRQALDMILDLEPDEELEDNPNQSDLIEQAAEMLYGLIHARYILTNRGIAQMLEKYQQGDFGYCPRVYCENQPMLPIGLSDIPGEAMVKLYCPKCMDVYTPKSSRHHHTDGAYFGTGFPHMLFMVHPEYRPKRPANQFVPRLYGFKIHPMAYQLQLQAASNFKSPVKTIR

Take `CN(C)CCCN1CCN(c2nc3c(oc4ccc(Br)cc43)c(=O)[nH]2)CC1` [Compound 246, 8-bromo-2-{4-[3-(dimethylamino)propyl]piperazin-1-yl}[1]benzofuro[3,2-d]pyrimidin-4(3H)-one]: the IC50 in assay [1] and in assay [2] was less than 10 µM throughout.

Turning to `O=C(NCc1ccccc1Cl)C1(O)CCN(Cc2nc3c(oc4ccc(Br)cc43)c(=O)[nH]2)C1` (centres unmarked) [Compound 411, ′1-[(8-bromo-4-oxo-3,4-dihydro[1]benzofuro[3,2-d]pyrimidin-2-yl)methyl]-N-[(2-chlorophenyl)methyl]-3-hydroxypyrrolidine-3-carboxamide], the IC50 in assay [1] and in assay [2] was less than 10 µM throughout.

In the case of `O=c1[nH]c(CN2CC[C@H](O)C2)nc2c1oc1ccccc12` [Compound 204, 2-{[(3S)-3-hydroxypyrrolidin-1-yl]methyl}[1]benzofuro[3,2-d]pyrimidin-4(3H)-one], the concentration for half-maximal inhibition (IC50) in assay [1] and in assay [2] was less than 10 µM each time.

`CCN1C[C@@H]2C[C@H]1CN2Cc1nc2c(oc3ccc(Br)cc32)c(=O)[nH]1` [Compound 295, 8-bromo-2-{[(1S,4S)-5-ethyl-2,5-diazabicyclo[2.2.1]hept-2-yl]methyl}[1]benzofuro[3,2-d]pyrimidin-4(3H)-one]: the IC50 in assay [1] and in assay [2] was less than 10 µM each time.

For `O=c1[nH]c(-c2cccs2)nc2c1oc1ccc(Br)cc12` [Compound 59, 8-bromo-2-(2-thienyl)[1]benzofuro[3,2-d]pyrimidin-4(3H)-one], the half-maximal inhibitory concentration (IC50) in assay [1] and in assay [2] was less than 10 µM throughout.

Regarding `Cc1cc(NC(=O)CN(C)C)ccc1-c1nc2c(oc3ccc(Br)cc32)c(=O)[nH]1` [Compound 62, N-[4-(8-bromo-4-oxo-3,4-dihydro[1]benzofuro[3,2-d]pyrimidin-2-yl)-3-methylphenyl]-N′2′,N′2′-dimethylglycinamide], the IC50 in assay [1] and in assay [2] was less than 10 µM throughout.

In the case of `COc1cccc(CNc2ccc3oc4c(=O)[nH]c(CN5CC[C@H](O)C5)nc4c3c2)c1` [Compound 467, 2-{[(3S)-3-hydroxypyrrolidin-1-yl]methyl}-8-({[3-(methyloxy)phenyl]methyl}amino)[1]benzofuro[3,2-d]pyrimidin-4(3H)-one], the IC50 in assay [1] and in assay [2] was less than 10 µM throughout.

Consider `Nc1cc(C(=O)Nc2ccc(-c3nc4c(oc5ccc(Br)cc54)c(=O)[nH]3)c(Cl)c2)ccn1` [Compound 284, 2-amino-N-[4-(8-bromo-4-oxo-3,4-dihydro[1]benzofuro[3,2-d]pyrimidin-2-yl)-3-chlorophenyl]pyridine-4-carboxamide], for which the IC50 in assay [1] and in assay [2] was less than 10 µM each time.

Regarding `COc1ccc2oc3c(=O)[nH]c(-c4ccc(NCC5CCN(C(=O)OC(C)(C)C)CC5)cc4Cl)nc3c2c1` [Cpd 137, 1,1-dimethylethyl 4-[({3-chloro-4-[8-(methyloxy)-4-oxo-3,4-dihydro[1]benzofuro[3,2-d]pyrimidin-2-yl]phenyl}amino)methyl]piperidine-1-carboxylate], the IC50 in assay [1] was less than 10 µM.

With `O=c1[nH]c(CNCc2ccncc2)nc2c1oc1ccc(Br)cc12` [Compound 165, 8-bromo-2-{[(pyridin-4-ylmethyl)amino]methyl}[1]benzofuro[3,2-d]pyrimidin-4(3H)-one], the IC50 in assay [1] and in assay [2] was less than 10 µM throughout.

Consider `O=c1[nH]c(-c2ccccc2Br)nc2c1oc1ccc(Br)cc12` [Compound 38, 8-Bromo-2-(2-bromophenyl)[1]benzofuro[3,2-d]pyrimidin-4(3H)-one], for which the IC50 in assay [1] and in assay [2] was less than 10 µM in each case.

For `O=c1[nH]c(-c2c(Cl)cccc2Cl)nc2c1oc1ccc(Br)cc12` [Compound 36, 8-Bromo-2-(2,6-dichlorophenyl)[1]benzofuro[3,2-d]pyrimidin-4(3H)-one], the IC50 in assay [1] and in assay [2] was less than 10 µM throughout.

Turning to `O=C(CCc1c[nH]cn1)Nc1ccc(-c2nc3c(oc4ccc(Br)cc43)c(=O)[nH]2)c(Cl)c1` [Compound 162, N-[4-(8-bromo-4-oxo-3,4-dihydro[1]benzofuro[3,2-d]pyrimidin-2-yl)-3-chlorophenyl]-3-(1H-imidazol-4-yl)propanamide], the IC50 in assay [1] and in assay [2] was less than 10 µM in each case.

With `O=C(Nc1ccc(-c2nc3c(oc4ccc(Br)cc43)c(=O)[nH]2)c(Cl)c1)c1ccc(CO)cn1` [Compound 345, N-[4-(8-bromo-4-oxo-3,4-dihydro[1]benzofuro[3,2-d]pyrimidin-2-yl)-3-chlorophenyl]-5-(hydroxymethyl)pyridine-2-carboxamide], the IC50 in assay [1] and in assay [2] was less than 10 µM each time.

For the compound `CC(O)CN(Cc1nc2c(oc3ccc(Br)cc32)c(=O)[nH]1)CC(C)O` (centres unmarked) [Compound 403, 2-{[bis(2-hydroxypropyl)amino]methyl}-8-bromo[1]benzofuro[3,2-d]pyrimidin-4(3H)-one], the IC50 in assay [1] and in assay [2] was less than 10 µM each time.

As for `CN(Cc1nc2c(oc3ccc(Br)cc32)c(=O)[nH]1)CC(O)CO` (centres unmarked) [Compound 409, 8-bromo-2-{[(2,3-dihydroxypropyl)(methyl)amino]methyl}[1]benzofuro[3,2-d]pyrimidin-4(3H)-one], the IC50 in assay [1] and in assay [2] was less than 10 µM in each case.

For `COc1ccc(Br)c(-c2nc3c(oc4ccc(Br)cc43)c(=O)[nH]2)c1` [Compound 78, 8-bromo-2-[2-bromo-5-(methyloxy)phenyl][1]benzofuro[3,2-d]pyrimidin-4(3H)-one], the IC50 in assay [1] and in assay [2] was less than 10 µM in each case.

Take `NCCN1CCC(Cc2nc3c(oc4ccc(Br)cc43)c(=O)[nH]2)CC1` [Compound 168, 2-{[1-(2-aminoethyl)piperidin-4-yl]methyl}-8-bromo[1]benzofuro[3,2-d]pyrimidin-4(3H)-one]: the IC50 in assay [1] and in assay [2] was less than 10 µM in each case.

Take `O=c1[nH]c(NC2CCNCC2)nc2c1oc1ccc(Br)cc12` [Compound 213, 8-bromo-2-(piperidin-4-ylamino)[1]benzofuro[3,2-d]pyrimidin-4(3H)-one]: the IC50 in assay [1] and in assay [2] was less than 10 µM each time.

Consider `O=c1[nH]c(CN2CCN(CCO)CC2)nc2c1oc1ccc(Br)cc12` [Compound 247, 8-bromo-2-{[4-(2-hydroxyethyl)piperazin-1-yl]methyl}[1]benzofuro[3,2-d]pyrimidin-4(3H)-one], for which the IC50 in assay [1] and in assay [2] was less than 10 µM in each case.

In the case of `O=c1[nH]c(CNc2cccc(F)c2)nc2c1oc1ccc(Br)cc12` [Compound 12, 8-bromo-2-{[(3-fluorophenyl)amino]methyl}[1]benzofuro[3,2-d]pyrimidin-4(3H)-one], the IC50 in assay [1] was less than 10 µM.

Consider `O=C(Nc1ccc(Cl)c(-c2nc3c(oc4ccc(Br)cc43)c(=O)[nH]2)c1)C1CCNCC1` [Compound 392, ′N-[3-(8-bromo-4-oxo-3,4-dihydro[1]benzofuro[3,2-d]pyrimidin-2-yl)-4-chlorophenyl]piperidine-4-carboxamide], for which, in assay [2], the half-inhibitory concentration (IC50) was less than 10 µM.

As for `CN1CCN(c2ccccc2CNCc2nc3c(oc4ccc(Br)cc43)c(=O)[nH]2)CC1` [Compound 74, 8-bromo-2-[({[2-(4-methylpiperazin-1-yl)phenyl]methyl}amino)methyl][1]benzofuro[3,2-d]pyrimidin-4(3H)-one], the IC50 in assay [2] was less than 10 µM.

Regarding `CNC(=O)c1ccc2oc3c(=O)[nH]c(-c4ccccc4Cl)nc3c2c1` [Compound 97, 2-(2-chlorophenyl)-N-methyl-4-oxo-3,4-dihydrobenzofuro[3,2-d]pyrimidine-8-carboxamide], the IC50 in assay [2] was less than 10 µM.

In the case of `O=c1[nH]c(CN2CCN(CCN3CCOCC3)CC2)nc2c1oc1ccc(Br)cc12` [Compound 82, 8-bromo-2-{[4-(2-morpholin-4-ylethyl)piperazin-1-yl]methyl}[1]benzofuro[3,2-d]pyrimidin-4(3H)-one], in assay [2], the IC50 was less than 10 µM.

Take `COc1ccc2oc3c(=O)[nH]c(-c4ccc(N)cc4Cl)nc3c2c1` [Cpd 129, 2-(4-amino-2-chlorophenyl)-8-(methyloxy)[1]benzofuro[3,2-d]pyrimidin-4(3H)-one]: the IC50 in assay [1] is less than 10 µM.

As for `O=c1[nH]c(CN2CCC(N3CCCCC3)CC2)nc2c1oc1ccc(Br)cc12` [Compound 202, 2-(1,4′-bipiperidin-1′-ylmethyl)-8-bromo[1]benzofuro[3,2-d]pyrimidin-4(3H)-one], in assay [2], the IC50 was less than 10 µM.

For the compound `COc1ccc(C(=O)Nc2ccc(Cl)c(-c3nc4c(oc5ccc(Br)cc54)c(=O)[nH]3)c2)cn1` [Compound 357, N-[3-(8-bromo-4-oxo-3,4-dihydro[1]benzofuro[3,2-d]pyrimidin-2-yl)-4-chlorophenyl]-6-(methyloxy)pyridine-3-carboxamide], the IC50 in assay [2] was less than 10 µM.
